In article PMC6403188, “Species-Specific Structural Requirements of Alpha-Branched Trehalose Diester Mincle Agonists” (Frontiers in Immunology, 2019):
Entries after “also recorded” stand apart in the source; their conditions may differ.

Columns and labels:
[1] = test system: Hek Blue human or mouse Mincle-expressing cells; assay type: cell-based; conditions: top concentrations, 24 h; compared with vehicle only-treated cells
[2] = test system: RAW264.7 cells; assay: Liposome formulations tested in RAW264.7 cells, TNFα ELISA; assay type: cell-based, mouse; conditions: formulated in DDA:DSPC liposome, 24 hours
[3] = test system: BALB/c mice; assay: Anti-M72 serum antibody ELISA after i.m. vaccination with M72 antigen plus liposomal adjuvant; assay type: in vivo, mouse
Experimental: (§1) Animal studies were carried out in an OLAW and AAALAC accredited vivarium in accordance with University of Montana's IACUC guidelines for the care and use of laboratory animals. Groups of 10–14 BALB/c mice were vaccinated intramuscularly with 0.125 μg M72 antigen and indicated concentrations of various CLR adjuvant candidates (liposomal formulations) in 50 μl total volume per injection. After 14 days, blood and serum samples were collected and a secondary vaccination was administered. At day 19 (5 days post-secondary vaccination), 3–6 mice per group were euthanized and spleens were harvested the assessment of cell-mediated immunity. At day 28 (14 days post booster vaccination) the remaining 7 mice in each group were euthanized and blood was collected for the measurement of M72 specific humoral immunity.
Sera was collected from mice 14 days post-primary and 14 days post-secondary injection and diluted according to the expected antibody response (between 1:10 and 1:5000). Plates were coated with 100 μl of the full-length M72 protein at 1 μg/mL. Following washing (PBS plus tween 20) and blocking (SuperBlock, Scytek Laboratories), plates were incubated with diluted serum for 1 h followed by anti-mouse IgG, IgG1, or IgG2a-HRP secondary antibody (Bethyl Laboratories) and TMB substrate (BD). Plates were read at 450 nm. Antibody titers were determined by calculating titer of each sample at OD 0.3.
Figure 6 Serum antibody levels from mice in response to vaccination with recombinant M72 antigen and various αTDE compounds. BALB/c mice, 10 per group, were vaccinated two times i.m. with 0.125 μg antigen plus 2, 10, or 50 nmol of the indicated adjuvant. Serum was analyzed from 7 mice at 14 days post-secondary vaccination for presence of anti-M72 IgG1 and IgG2a antibodies via ELISA.
(§2) Figure 8 B16 liposomes biases a Th17/Th2 adaptive immune response. BALB/c mice, 14 per group, were immunized twice, 14 days apart, i.m with 0.1, 1, or 10 μg of M72 antigen plus either blank DDA:DSPC liposome or B16 loaded (10 nmol final dose) liposome. (A,B) M72-specific serum antibody titers at 14 days post-secondary vaccination. (C–F) Spleens were harvested from mice at 5 days post-secondary vaccination and restimulated with 1 μg/mL whole antigen and transport inhibitors followed by surface staining for CD3, CD4, and CD8 and then intracellular cytokine staining. (C) Percent of live, CD3^+/CD4^+/IL5+ cells, (D) Percent of live, CD3^+/CD8^+/IFNγ+ cells, (E) Percent of live, CD3^+/CD4^+/IL17+ cells, and (F) Percent of live, CD3^+/CD8^+/IL17+ cells. ^*p < 0.05, ^**p < 0.01, ^****p < 0.001.

[4] = test system: BALB/c mice; assay: Splenocyte restimulation with M72 and intracellular cytokine staining of CD4/CD8 T cells after vaccination; assay type: in vivo, mouse
Experimental: as §1
Spleens were harvested from vaccinated mice 5 days after secondary injections and splenocytes were harvested by disruption of the spleens through a 100 μm filter. Red blood cells were lysed by incubation with red blood cell lysis buffer (Sigma) for 5 min followed by washing in 1x PBS. Cells were plated in a 96 well plate at 5 × 10^6 cells/well in 200 μL complete RPMI1640 media. Cells were incubated with 1 μg/mL M72 antigen for […] at 37°C. After 7 h, GolgiPlug (Brefeldin A, BD Biosciences) was added to each well and incubated at 37°C for a further 12 h. Following incubation, cells were stained with the cell surface antibodies against CD3e PerCP-Cy5.5 (Tonbo Biosciences, 145-2C11), CD4a APC-Cy7 (Tonbo Biosciences, RM4-5) and CD8a PE-Cy7 (Tonbo Biosciences, 53–6.7) and viability stain (Ghost 510, Tonbo Biosciences). Cells were treated with cytofix/cytoperm (BD) and stained with anti-IFNγ PE-CF594 (BD, XMG1.2), anti-IL2 FITC (Biolegend, JES6-5H4), anti-IL-5 PE (BD, TRFK5), anti-IL17A BV421 (Biolegend, TC11-18H10.1), and anti-TNFα APC (Invitrogen, MP6-XT22). Data was collected using an LSRII flow cytometer (BD) and analyzed using FlowJo 10.0 software (TreeStar). Splenocytes were gated on live, single cells, then CD3+ to identify all T cells, then gated as CD4+CD8- to identify CD4 T cells or CD4-CD8+ to identify CD8 T cells. Gates for intracellular cytokine positive CD4 or CD8 T cells are set based on re-stimulation of naïve splenocytes. Gating strategies for the detection of antigen specific CD4+ and CD8+ T cells are outlined in Supplemental Figure 3.
Figure 7 Induction of IL-17 producing CD4+ and CD8+ T cells from an αTDE adjuvanted M72 vaccine. BALB/c mice, 10 per group, were immunized two times i.m. with 0.125 μg antigen plus 2, 10, or 50 nmol of the indicated adjuvant. Spleens were harvested from a subset of 3 mice per group at 5 days post-secondary vaccination. Splenocytes were restimulated with 1 μg/mL whole antigen and transport inhibitors followed by surface staining for CD3, CD4, and CD8 and then intracellular cytokine staining. Data represent percentage of live, CD3^+/CD4^+, left, or CD3^+/CD8^+, right, cells that are also positive for IL-17A upon stimulation.
as §2
Supplemental Figure 10. Production of IFNɣ, IL-2, IL-5 or TNFα by CD4 or CD8 T cells in response to various CLR compounds. […]

In the case of `CCCCCCCC(CCCCCCC)C(=O)OC[C@H]1O[C@H](O[C@H]2O[C@H](COC(=O)C(CCCCCCC)CCCCCCC)[C@@H](O)[C@H](O)[C@H]2O)[C@H](O)[C@@H](O)[C@@H]1O` [Compound B16], the “Cell viability of Mincle HEK cells” value [1] is reported as “less substantial decreases”, the “TNFα secretion from RAW cells in response to liposome formulation” value [2] is reported as “higher levels of TNFα secretion compared to B42” and the “M72 specific serum IgG1 and IgG2a antibody titers” value ([3]; 10 nmol B16 liposome, increasing doses of M72 antigen (0.1, 1, 10 μg), 14 dp2) is reported as “significantly improved”. The “M72 specific serum antibody titers” value ([3]; 10 nmol B16 liposome, lowest dose of M72 antigen (0.1 μg)) was “did not exhibit significantly higher antibody titers”, the “Anti-M72 serum IgG1 and IgG2a antibody” value ([3]; 0.125 μg M72 antigen plus 2, 10, or 50 nmol adjuvant in DDA:DSPC liposomes, i.m. two times, 14 days post-secondary vaccination) was “neither compound significantly enhanced” and the “Frequencies of IFNγ+ CD8 T cells or IFNγ+ CD4 T cells” value ([4]; 10 nmol B16, 0.1, 1 or 10 μg M72, between groups) was “no differences”. For the same compound, the “IL-2+ CD4 T cells” value ([4]; 10 nmol B16, 0.1, 1 or 10 μg M72, compared to blank liposome) was “similarly increased only in the middle dose”, the “Frequencies of TNFα+ CD4 T cells” value ([4]; 10 nmol B16, compared to antigen matched blank liposome groups) was “not increased” and the “Frequencies of IL-5+ CD4 T cells” value ([4]; 10 nmol B16, highest antigen dose tested) was “no difference is observed”. For the same compound, the “Frequencies of IL-5+, IL-2+, and TNFα+ CD8 T cells” value ([4]; 10 nmol B16, highest dose of antigen) was “not at the highest dose”, the “Frequencies of IL-5+, IL-2+, and TNFα+ CD8 T cells” value ([4]; 10 nmol B16, lower doses of antigen, compared to antigen plus blank liposome) was “also increased” and the “Frequencies of IL-5+ CD4 T cells” value ([4]; 10 nmol B16, two lower doses of antigen, compared to antigen plus blank liposome) was “similarly increased”. For the same compound, the “Frequencies of IL-17+ CD4 and CD8 T cells” value ([4]; 10 nmol liposomal B16 with 0.1 μg and 1 μg M72/mouse, compared to antigen plus blank liposomes) was “significantly higher frequencies”, the “Frequencies of IL-17+ CD4 and CD8 T cells” value ([4]; 10 nmol liposomal B16 with 10 μg M72, compared to antigen plus blank liposome) was “not significant” and the “IL-17+ CD4+ and CD8+ T cells (Th17 response) after M72 re-stimulation” value ([4]; 0.125 μg antigen plus 2, 10, or 50 nmol liposomal adjuvant, i.m. two times, spleens 5 days post-secondary) was “greatest frequency of IL-17+ cells; also recorded: more effective”.
